Earlier results as cited in patent US9328386B2, “Markers for susceptibility to an inhibitor of an Src-family kinase” (Evotec (München) GmbH, priority 2011, dated 2016).

Tests used:
FGFR1 = FGFR1 (Homo sapiens, UniProt P11362); settings: cited from earlier work
VEGFR = settings: cited from earlier work
CSK = CSK (Homo sapiens, UniProt P41240); settings: cited from earlier work
EGFR = EGFR (Homo sapiens, UniProt P00533); settings: cited from earlier work
LCK = LCK (Homo sapiens, UniProt P06239); settings: cited from earlier work
YES = YES (Homo sapiens, UniProt P07947); settings: unit not given; cited from earlier work
SRC = SRC (Homo sapiens, UniProt P12931); settings: cited from earlier work
MET = MET (Homo sapiens, UniProt P08581); settings: cited from earlier work
SFK = settings: cited from earlier work

Chain of CSK (P41240 whole entry, species assumed): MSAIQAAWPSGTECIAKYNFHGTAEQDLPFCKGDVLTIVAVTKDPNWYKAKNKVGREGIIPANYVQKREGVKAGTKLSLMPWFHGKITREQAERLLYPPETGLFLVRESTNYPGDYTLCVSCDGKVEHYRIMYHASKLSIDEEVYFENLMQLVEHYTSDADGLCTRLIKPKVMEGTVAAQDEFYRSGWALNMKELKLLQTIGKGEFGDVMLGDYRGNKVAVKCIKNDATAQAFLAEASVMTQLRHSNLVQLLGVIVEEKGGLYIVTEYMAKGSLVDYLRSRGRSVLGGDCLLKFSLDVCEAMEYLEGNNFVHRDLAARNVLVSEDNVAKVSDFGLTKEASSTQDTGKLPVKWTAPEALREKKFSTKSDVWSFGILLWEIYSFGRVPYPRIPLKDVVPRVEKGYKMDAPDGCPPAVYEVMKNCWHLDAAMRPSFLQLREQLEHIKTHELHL
Chain of FGFR1 (P11362 22-822, species assumed): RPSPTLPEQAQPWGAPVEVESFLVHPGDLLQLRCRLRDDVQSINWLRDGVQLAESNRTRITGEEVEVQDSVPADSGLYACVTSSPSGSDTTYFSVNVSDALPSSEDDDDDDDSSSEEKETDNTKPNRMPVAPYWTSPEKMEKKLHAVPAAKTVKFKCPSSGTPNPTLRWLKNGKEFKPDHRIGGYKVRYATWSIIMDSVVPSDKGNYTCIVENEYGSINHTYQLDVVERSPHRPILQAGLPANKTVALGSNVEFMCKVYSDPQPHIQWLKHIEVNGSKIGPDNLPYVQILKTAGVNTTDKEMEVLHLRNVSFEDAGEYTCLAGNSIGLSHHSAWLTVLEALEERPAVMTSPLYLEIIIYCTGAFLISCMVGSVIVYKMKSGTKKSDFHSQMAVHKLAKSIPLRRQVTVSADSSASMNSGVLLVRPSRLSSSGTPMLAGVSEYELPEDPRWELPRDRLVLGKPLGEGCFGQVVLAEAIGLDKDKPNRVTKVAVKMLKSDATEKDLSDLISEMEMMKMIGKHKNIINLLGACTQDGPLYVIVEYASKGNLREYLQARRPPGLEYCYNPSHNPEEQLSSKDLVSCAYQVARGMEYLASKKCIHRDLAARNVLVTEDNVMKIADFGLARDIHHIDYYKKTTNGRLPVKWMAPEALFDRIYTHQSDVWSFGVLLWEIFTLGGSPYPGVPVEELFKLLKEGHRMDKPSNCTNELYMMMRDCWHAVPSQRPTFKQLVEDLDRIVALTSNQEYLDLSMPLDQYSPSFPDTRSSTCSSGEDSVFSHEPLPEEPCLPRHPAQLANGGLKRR
Chain of SRC (P12931 whole entry, species assumed): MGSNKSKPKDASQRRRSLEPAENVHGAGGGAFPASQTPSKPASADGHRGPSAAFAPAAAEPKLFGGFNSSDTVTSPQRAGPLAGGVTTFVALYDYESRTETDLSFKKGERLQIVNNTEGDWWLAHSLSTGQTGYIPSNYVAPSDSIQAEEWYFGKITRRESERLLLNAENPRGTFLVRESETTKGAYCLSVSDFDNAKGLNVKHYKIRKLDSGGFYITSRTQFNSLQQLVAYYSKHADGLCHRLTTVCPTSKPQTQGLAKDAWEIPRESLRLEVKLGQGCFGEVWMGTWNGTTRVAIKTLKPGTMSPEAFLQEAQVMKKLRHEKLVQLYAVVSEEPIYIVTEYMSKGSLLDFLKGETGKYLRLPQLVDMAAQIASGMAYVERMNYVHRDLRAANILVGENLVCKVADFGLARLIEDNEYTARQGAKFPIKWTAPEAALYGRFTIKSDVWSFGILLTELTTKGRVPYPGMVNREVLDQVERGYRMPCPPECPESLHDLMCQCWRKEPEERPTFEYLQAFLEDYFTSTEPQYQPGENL
Chain of MET (P08581 25-1390): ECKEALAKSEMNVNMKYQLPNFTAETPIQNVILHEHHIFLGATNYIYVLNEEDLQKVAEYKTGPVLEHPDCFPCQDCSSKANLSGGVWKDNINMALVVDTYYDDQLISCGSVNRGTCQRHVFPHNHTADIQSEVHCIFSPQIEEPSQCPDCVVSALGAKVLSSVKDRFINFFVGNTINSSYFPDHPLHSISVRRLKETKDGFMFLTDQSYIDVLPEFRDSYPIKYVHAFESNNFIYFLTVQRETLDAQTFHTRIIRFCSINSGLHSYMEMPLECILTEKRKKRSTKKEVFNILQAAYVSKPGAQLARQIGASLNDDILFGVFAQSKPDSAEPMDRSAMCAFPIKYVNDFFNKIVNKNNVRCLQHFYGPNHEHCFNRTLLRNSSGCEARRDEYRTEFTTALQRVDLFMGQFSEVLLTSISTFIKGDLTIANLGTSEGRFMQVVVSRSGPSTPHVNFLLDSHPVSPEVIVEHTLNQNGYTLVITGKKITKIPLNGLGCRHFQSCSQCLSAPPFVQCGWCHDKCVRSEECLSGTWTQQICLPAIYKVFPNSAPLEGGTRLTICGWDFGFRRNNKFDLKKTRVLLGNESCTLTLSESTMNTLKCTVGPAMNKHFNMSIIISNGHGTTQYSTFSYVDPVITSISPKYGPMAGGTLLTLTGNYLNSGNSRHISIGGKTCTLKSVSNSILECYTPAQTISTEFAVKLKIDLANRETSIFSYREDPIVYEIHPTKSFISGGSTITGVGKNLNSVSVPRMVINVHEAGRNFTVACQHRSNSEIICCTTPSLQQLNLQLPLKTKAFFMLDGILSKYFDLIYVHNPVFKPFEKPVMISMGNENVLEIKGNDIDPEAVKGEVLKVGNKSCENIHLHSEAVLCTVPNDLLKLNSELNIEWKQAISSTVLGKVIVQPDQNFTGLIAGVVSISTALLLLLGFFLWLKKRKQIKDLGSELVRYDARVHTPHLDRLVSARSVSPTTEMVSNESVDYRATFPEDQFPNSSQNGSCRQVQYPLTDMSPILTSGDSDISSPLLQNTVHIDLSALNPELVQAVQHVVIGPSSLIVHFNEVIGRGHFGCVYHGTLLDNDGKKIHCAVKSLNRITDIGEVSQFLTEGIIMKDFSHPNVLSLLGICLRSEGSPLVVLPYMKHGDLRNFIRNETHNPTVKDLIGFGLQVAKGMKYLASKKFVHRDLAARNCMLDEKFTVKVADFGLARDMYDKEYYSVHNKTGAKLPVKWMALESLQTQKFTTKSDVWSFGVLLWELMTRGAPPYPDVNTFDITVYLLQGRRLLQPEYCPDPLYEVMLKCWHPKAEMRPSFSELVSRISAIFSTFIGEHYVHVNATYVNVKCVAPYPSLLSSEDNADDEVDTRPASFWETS
Chain of YES (P07947 whole entry, species assumed): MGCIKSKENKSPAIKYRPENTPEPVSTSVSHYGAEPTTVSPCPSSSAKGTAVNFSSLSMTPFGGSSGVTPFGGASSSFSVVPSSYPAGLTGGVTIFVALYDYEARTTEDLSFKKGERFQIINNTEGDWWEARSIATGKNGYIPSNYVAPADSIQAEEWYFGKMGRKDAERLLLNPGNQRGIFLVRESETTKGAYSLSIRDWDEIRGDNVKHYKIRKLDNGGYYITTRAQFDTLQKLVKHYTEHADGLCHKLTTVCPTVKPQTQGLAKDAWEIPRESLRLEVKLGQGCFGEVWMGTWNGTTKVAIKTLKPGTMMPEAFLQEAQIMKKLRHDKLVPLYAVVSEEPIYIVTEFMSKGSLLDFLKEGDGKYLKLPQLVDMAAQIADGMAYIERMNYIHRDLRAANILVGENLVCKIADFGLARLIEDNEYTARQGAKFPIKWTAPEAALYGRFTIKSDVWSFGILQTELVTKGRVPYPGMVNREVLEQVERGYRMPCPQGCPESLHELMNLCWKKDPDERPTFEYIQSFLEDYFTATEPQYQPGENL
Chain of LCK (P06239 whole entry, species assumed): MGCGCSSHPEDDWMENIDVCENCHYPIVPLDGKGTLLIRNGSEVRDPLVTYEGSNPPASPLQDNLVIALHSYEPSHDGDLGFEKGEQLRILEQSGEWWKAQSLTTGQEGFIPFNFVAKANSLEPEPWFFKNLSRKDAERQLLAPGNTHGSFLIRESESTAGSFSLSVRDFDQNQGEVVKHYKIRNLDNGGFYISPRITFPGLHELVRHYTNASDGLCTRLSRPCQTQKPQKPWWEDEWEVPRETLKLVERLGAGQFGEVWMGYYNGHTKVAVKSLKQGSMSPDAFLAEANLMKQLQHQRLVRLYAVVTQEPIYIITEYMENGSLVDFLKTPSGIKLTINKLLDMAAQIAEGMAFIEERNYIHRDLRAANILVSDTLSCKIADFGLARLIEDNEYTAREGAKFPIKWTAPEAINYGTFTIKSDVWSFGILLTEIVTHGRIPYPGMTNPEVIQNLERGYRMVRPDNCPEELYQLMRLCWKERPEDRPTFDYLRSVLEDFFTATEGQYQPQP

SMILES | Affinities (basic outline) (FGFR1) [µM] | Affinities (basic outline) (VEGFR) [nM] | Affinities (basic outline) (CSK) [µM] | Affinities (basic outline) (EGFR) [nM] | Affinities (basic outline) (LCK) [nM] | Affinities (basic outline) (YES) | Affinities (basic outline) (SRC) [nM] | Affinities (basic outline) (MET) [nM] | Affinities (basic outline) (SFK) [nM]
COc1ccc(Cl)c(Nc2ncnc3cc(OCC4CCN(C)CC4)c(OC)cc23)c1 [M475271, 4-quinazolinamine, N-(2-chloro-5-methoxyphenyl)-6-methoxy-7-[(1-methyl-4-piperidinyl)methoxy]-(9Cl)] | 20 | 500 | 7.6 | 600 | 200 | 10 | 25 |  | 
CN(C)S(=O)(=O)c1ccc2c(c1)/C(=C/c1cc3c([nH]1)CCCC3)C(=O)N2 [SU6656, (2-oxo-3-(4,5,6,7-tetrahydro-1H-indol-2-ylmethylene)-2,3-dihydro-1H-indole-5-sulfonic acid dimethylamide)] |  |  | 0.007 |  |  |  |  | 3 | 0.02 to 6.88
